Values quoted from earlier work as cited in patent US20030060423A1, “Co-therapy for the treatment of dementia and associated behavioral manifestations comprising anticonvulsant derivatives and acetylcholinesterase inhibitors” (priority 2001, published 2003).

Key:
[1] = test system: neuronal damage following global ischemia; conditions: gerbils
kindled epilepsy = conditions: animal model of kindled epilepsy
seizures = conditions: several rodent models of epilepsy
attention, cognition = conditions: some individuals
[2] = test system: simple and complex partial seizures and secondarily generalized seizures; conditions: clinical trials, adjunctive therapy or monotherapy
focal ischemia = conditions: used 2 hours after MCA embolization, rat
[3] = test system: behavioral and psychiatric symptoms of AD; conditions: in vivo

Row | SMILES | neuroprotective effect against neuronal damage [1] | block of seizures (kindled epilepsy) | block of seizures (seizures) | effect on attention (attention, cognition) | efficacy in treating simple and complex partial seizures and secondarily generalized seizures [2] | neuroprotective effect (focal ischemia) | benefit on behavioral and psychiatric symptoms of AD [3] | modulation of nicotinic receptors (nicotinic receptors)
1 | CC1(C)O[C@@H]2[C@@H](CO[C@@]3(COS(N)(=O)=O)OC(C)(C)O[C@@H]23)O1 [topiramate, 2,3:4,5-bis-O-(1-methylethylidene)-β-D-fructopyranose sulfamate] | neuroprotective effect | effectively block seizures | effectively block seizures | may impair attention | effective as adjunctive therapy or as monotherapy | dose- and use-dependent neuroprotective effect | – | –
2 | COc1ccc2c3c1O[C@H]1C[C@@H](O)C=C[C@@]31CCN(C)C2 [galantamine, (4aS,6R,8aS)-4a,5,9,10,11,12-hexahydro-3-methoxy-11-methyl-6H-benzofuro[3a,3,2-ef][2]benzazepin-6-ol] | – | – | – | – | – | – | benefits on the behavioral and psychiatric symptoms of AD | allosteric modulation of nicotinic receptors
